Results published in patent US9801809B2, “Compositions including a botanical extract and methods of using the same in skin whitening and skin lightening applications” (Access Business Group International LLC, priority 2014, dated 2017).

Test system: Melan-a cells
Assay: Melanin production in Melan-a cells
Type: cell-based
Conditions: extract 25 μg and 12.5 μg, treated twice, compared to 100% untreated control, FIG. 3
Protocol: The chrysanthemum extract in an amount of 25 μg and 12.5 μg was solubilized in DMSO and added to Melan-a cells that were freshly seeded at a density of 5×10^4 cells on a 24 well plate. The cytosolic pH of the Melan-a melanocytes in this assay is about 5-7. Each dose of the chrysanthemum extract was added to the cells in triplicate. The final concentration of DMSO in the culture medium was maintained at 0.25%. Forty eight hours following the first set of treatment, the cells were again treated with the chrysanthemum extract and supplemented with fresh medium. Two days later, melanin was extracted and quantified by normalizing with protein content, following the method described by Komatsu et al. (J. Cosmet. Sci; 64, 455-453 (2013); Rana J. et al., Pigment Cell Res., 18:447 (2005)). Inhibitory activity of samples was reported as % reduction in melanin production compared to 100% untreated control (UT). Phenylthiourea (PTU), a well-known tyrosinase inhibitor was used as positive inhibitor control in the assay. FIG. 3 plots the results.

**Q.** With `O=c1cc(-c2ccc(O)c(O)c2)oc2cc(O[C@@H]3OC(CO)[C@@H](O)C(O)C3O)cc(O)c12` (stereo partly shown) [luteolin-7 glucoside] as the molecule, how does the “reduction in melanin production” value read?
**A.** The value was “dose-dependent inhibition”.
